One data set relates to HepG2. The data set can be described thus: Cytotoxicity against human HepG2 cells measured after 24 to 36 hrs by resazurin dye based fluorescence assay. The data set is classed as cell-based.
The test system of data set [1] is Plasmodium falciparum. The data set can be described thus: Antimalarial activity against chloroquine-sensitive Plasmodium falciparum D6 infected in human erythrocytes by SYBR green 1-based fluorescence assay. It is filed as functional, organism-based.
Data set [2] deals with Plasmodium falciparum. The data set can be described thus: Antimalarial activity against atovaquone-resistant Plasmodium falciparum Tm90-C2B infected in human erythrocytes by SYBR green 1-based fluorescence assay. The data set is classed as functional, organism-based.
The subject of data set [3] is Plasmodium falciparum. Briefly: Antimalarial activity against multidrug-resistant Plasmodium falciparum Dd2 infected in human erythrocytes by SYBR green 1-based fluorescence assay. It is filed as functional, organism-based.
Data set [4] in a line: Selectivity index, ratio of IC50 for human HepG2 cells to IC50 for chloroquine-sensitive Plasmodium falciparum D6 infected in human erythrocytes. As to conditions: read-out: Ratio IC50. The data set is classed as toxicity, cell-based.
The test system of data set [5] is Plasmodium falciparum. Briefly: Antimalarial activity against multidrug-resistant Plasmodium falciparum 7G8 infected in human erythrocytes by SYBR green 1-based fluorescence assay. The data set is classed as functional, organism-based.

As for `CCN(CC)CCOc1ccc2c(=O)c3cc(Cl)cc(Cl)c3[nH]c2c1`, the concentration for half-maximal inhibition (IC50) with HepG2 is 35 µM; in the data set with Plasmodium falciparum [1] it was 928 nM; with Plasmodium falciparum [2] it was greater than 2500 nM; in the data set with Plasmodium falciparum [3], greater than 2500 nM; in the data set on Plasmodium falciparum [5], 1290 nM. Also, in data set [4], the selectivity ratio was determined as 38.

Regarding `CCCN(CCC)CCOc1ccc2c(=O)c3c(OC)cc(Cl)cc3[nH]c2c1`, the IC50 in the data set on HepG2 is 45 µM; in the data set on Plasmodium falciparum [1], 251 nM; in the data set with Plasmodium falciparum [2], greater than 2500 nM; in the data set with Plasmodium falciparum [3] it was 184 nM; with Plasmodium falciparum [5] it was 251 nM. Besides, the selectivity ratio in data set [4] was 179.

Turning to `CCN(CC)CCOc1ccc2c(=O)c3ccc(Cl)cc3n(CCN(CC)CC)c2c1`, the half-maximal inhibitory concentration (IC50) with HepG2 is greater than 40 µM; in the data set on Plasmodium falciparum [1] it was 49 nM; with Plasmodium falciparum [2], 71 nM; in the data set with Plasmodium falciparum [3], 77 nM; with Plasmodium falciparum [5] it was 86 nM. Further, the selectivity ratio in data set [4] is greater than 816.

Regarding `CCCCNCCCOc1ccc2c(=O)c3cc(Cl)c(Cl)cc3[nH]c2c1`, the half-inhibitory concentration (IC50) with HepG2 amounted to 75.2 µM; with Plasmodium falciparum [1] it was 36 nM; in the data set on Plasmodium falciparum [2] it was 177 nM; with Plasmodium falciparum [3], 145 nM; with Plasmodium falciparum [5], 161 nM. For the same molecule, the selectivity ratio in data set [4] stood at 2490.

For the molecule `O=c1c2ccc(OCCCl)cc2[nH]c2cc(Cl)cc(Cl)c12`, the IC50 was greater than 100 µM with HepG2; 14 nM in the data set with Plasmodium falciparum [1]; 409 nM in the data set with Plasmodium falciparum [2]; 12 nM with Plasmodium falciparum [3]; 44 nM with Plasmodium falciparum [5]. Also, in data set [4], the selectivity ratio was greater than 7140.

For the molecule `CC(C)(C)NCCCOc1ccc2c(=O)c3cc(Cl)c(Cl)cc3[nH]c2c1`, the IC50 in the data set with HepG2 came to 6.1 µM; with Plasmodium falciparum [1], 123 nM; with Plasmodium falciparum [2] it was 551 nM; in the data set on Plasmodium falciparum [3], 589 nM; in the data set with Plasmodium falciparum [5], 421 nM. For the same molecule, the selectivity ratio in data set [4] is 49.

Take `CC(C)(C)NCCCOc1ccc2c(=O)c3c(F)cc(F)cc3[nH]c2c1`: the 50% inhibitory concentration (IC50) with HepG2 stood at 41.5 µM; in the data set on Plasmodium falciparum [1], 115 nM; with Plasmodium falciparum [2], 2500 nM; in the data set with Plasmodium falciparum [3], 8.9 nM; in the data set with Plasmodium falciparum [5] it was 627 nM. Also, the selectivity ratio in data set [4] turned out to be 361.

For the molecule `CCN(CC)CCOc1ccc2c(=O)c3cc(F)c(F)cc3[nH]c2c1`, the IC50 in the data set on HepG2 is greater than 200 µM; with Plasmodium falciparum [1], 146 nM; in the data set on Plasmodium falciparum [2], 270 nM; in the data set with Plasmodium falciparum [3], 187 nM; with Plasmodium falciparum [5], 110 nM. The selectivity ratio in data set [4] is greater than 1370.

In the case of `CCCN(CCC)CCOc1ccc2[nH]c3cc(OC)cc(Cl)c3c(=O)c2c1`, the IC50 with HepG2 was greater than 100 µM; with Plasmodium falciparum [1], 79 nM; in the data set on Plasmodium falciparum [2], 558 nM; in the data set with Plasmodium falciparum [3] it was 92 nM; with Plasmodium falciparum [5], 288 nM. The selectivity ratio in data set [4] is greater than 1270.

As for `CCCN(CCC)CCOc1ccc2[nH]c3cc(Cl)cc(OC)c3c(=O)c2c1`, the 50% inhibitory concentration (IC50) is 36.8 µM in the data set on HepG2; 30 nM in the data set with Plasmodium falciparum [1]; 96 nM with Plasmodium falciparum [2]; 11 nM in the data set with Plasmodium falciparum [3]; 32 nM in the data set with Plasmodium falciparum [5]. Moreover, the selectivity ratio in data set [4] stood at 1220.

In the case of `CCCN(CCC)CCOc1ccc2[nH]c3ccc(Cl)c(Cl)c3c(=O)c2c1`, the IC50 worked out at 12.7 µM in the data set on HepG2; 99 nM with Plasmodium falciparum [1]; 274 nM in the data set with Plasmodium falciparum [2]; 17 nM with Plasmodium falciparum [3]; 32 nM in the data set with Plasmodium falciparum [5]. Moreover, the selectivity ratio in data set [4] was 128.

As for `CC(C)(C)NCCCOc1ccc2c(=O)c3c(Cl)c(Cl)ccc3[nH]c2c1`, the half-maximal inhibitory concentration (IC50) is 24.8 µM in the data set on HepG2; 196 nM in the data set with Plasmodium falciparum [1]; greater than 2500 nM in the data set with Plasmodium falciparum [2]; 1360 nM with Plasmodium falciparum [3]; 1630 nM with Plasmodium falciparum [5]. In data set [4], the selectivity ratio is 127.

For `CCN(CC)CCOc1ccc2c(=O)c3cc(F)c(OC)cc3[nH]c2c1`, the IC50 in the data set on HepG2 is greater than 200 µM; with Plasmodium falciparum [1] it was 156 nM; in the data set with Plasmodium falciparum [2] it was 622 nM; in the data set on Plasmodium falciparum [3], 448 nM; with Plasmodium falciparum [5], 533 nM. For the same molecule, in data set [4], the selectivity ratio was greater than 1280.

In the case of `CN(C)CCOc1ccc2c(=O)c3ccc(Cl)cc3[nH]c2c1`, the half-inhibitory concentration (IC50) in the data set on HepG2 was found to be 59 µM; in the data set on Plasmodium falciparum [1], 56 nM; with Plasmodium falciparum [2] it was 563 nM; in the data set on Plasmodium falciparum [3], 63 nM; in the data set with Plasmodium falciparum [5], 70 nM. The selectivity ratio in data set [4] is 1050.

Turning to `O=c1c2ccc(OCCCCl)cc2[nH]c2ccc(Cl)cc12`, the IC50 is greater than 100 µM in the data set with HepG2; 24 nM in the data set with Plasmodium falciparum [1]; 371 nM in the data set on Plasmodium falciparum [2]; 38 nM with Plasmodium falciparum [3]; 51 nM in the data set on Plasmodium falciparum [5]. In addition, the selectivity ratio in data set [4] was greater than 4170.

With `CCCCNCCCOc1ccc2c(=O)c3c(Cl)c(Cl)ccc3[nH]c2c1`, the concentration for half-maximal inhibition (IC50) was 22.7 µM in the data set on HepG2; 46 nM with Plasmodium falciparum [1]; 68 nM with Plasmodium falciparum [2]; 37 nM with Plasmodium falciparum [3]; 106 nM in the data set with Plasmodium falciparum [5]. For the same molecule, the selectivity ratio in data set [4] came to 492.

Consider `CCN(CC)CCOc1ccc2c(=O)c3cc(F)c(OCCN(CC)CC)cc3[nH]c2c1`, for which the concentration for half-maximal inhibition (IC50) in the data set with HepG2 was greater than 200 µM; in the data set with Plasmodium falciparum [1], 116 nM; with Plasmodium falciparum [2], 386 nM; in the data set on Plasmodium falciparum [3], 209 nM; with Plasmodium falciparum [5] it was 774 nM. Moreover, the selectivity ratio in data set [4] was greater than 12500.

For `CCN(CC)CCCOc1ccc2c(=O)c3c(F)cc(F)cc3[nH]c2c1`, the IC50 was found to be 38.6 µM in the data set with HepG2; 32 nM with Plasmodium falciparum [1]; 705 nM with Plasmodium falciparum [2]; 7.8 nM in the data set on Plasmodium falciparum [3]; 44 nM in the data set on Plasmodium falciparum [5]. In addition, the selectivity ratio in data set [4] was 1210.

`CCCCNCCCOc1ccc2c(=O)c3c(Cl)cc(Cl)cc3[nH]c2c1`: the IC50 in the data set with HepG2 was found to be 11.1 µM; in the data set with Plasmodium falciparum [1], 101 nM; in the data set with Plasmodium falciparum [2], 82 nM; with Plasmodium falciparum [3] it was 186 nM; in the data set with Plasmodium falciparum [5] it was 294 nM. Moreover, the selectivity ratio in data set [4] was determined as 110.

Turning to `CC(C)(C)NCCCOc1ccc2c(=O)c3cc(Cl)ccc3[nH]c2c1`, the IC50 was 75.2 µM in the data set on HepG2; 674 nM with Plasmodium falciparum [1]; 2140 nM with Plasmodium falciparum [2]; 1020 nM in the data set with Plasmodium falciparum [3]; greater than 2500 nM with Plasmodium falciparum [5]. Further, the selectivity ratio in data set [4] is 112.

Regarding `CCCN(CCC)CCOc1ccc2[nH]c3cc(Cl)c(Cl)cc3c(=O)c2c1`, the IC50 in the data set on HepG2 is greater than 100 µM; with Plasmodium falciparum [1], 26 nM; in the data set with Plasmodium falciparum [2] it was 58 nM; in the data set on Plasmodium falciparum [3] it was 17 nM; in the data set on Plasmodium falciparum [5] it was 14 nM. Besides, the selectivity ratio in data set [4] was greater than 3850.

Consider `O=c1c2ccc(OCCCCl)cc2[nH]c2cc(F)cc(F)c12`, for which the IC50 with HepG2 was greater than 100 µM; in the data set on Plasmodium falciparum [1], 1.4 nM; with Plasmodium falciparum [2] it was 89 nM; in the data set on Plasmodium falciparum [3], 0.3 nM; in the data set with Plasmodium falciparum [5] it was 1.9 nM. Moreover, the selectivity ratio in data set [4] is greater than 71400.

Turning to `CCN(CC)CCOc1ccc2c(=O)c3c(Cl)ccc(Cl)c3[nH]c2c1`, the half-inhibitory concentration (IC50) is 77 µM in the data set on HepG2; 506 nM in the data set on Plasmodium falciparum [1]; greater than 2500 nM in the data set on Plasmodium falciparum [2]; 1300 nM in the data set with Plasmodium falciparum [3]; 848 nM with Plasmodium falciparum [5]. The selectivity ratio in data set [4] is 152.

`CCN(CC)CCNc1ccc2c(=O)c3cc(F)c(OC)cc3[nH]c2c1`: the IC50 with HepG2 is 126 µM; in the data set on Plasmodium falciparum [1], 526 nM; with Plasmodium falciparum [2], 1510 nM; in the data set on Plasmodium falciparum [3] it was 1170 nM; with Plasmodium falciparum [5], 1300 nM. The selectivity ratio in data set [4] amounted to 239.
